In assay [1] the target is T1, hEP4/Gqs5 (Homo sapiens, UniProt P35408).
T1 construct: expressed in transfected cells
Nature of the assay: FLIPR calcium signal, EP4. Format: cell-based. As to conditions: HEK-293(EBNA); for EC50: read-out: Ca2+ Signal-EC50 (nM) EP4. The protocol: (§1) HEK-293(EBNA) cells, stably expressing one type or subtype of recombinant human prostaglandin receptors (prostaglandin receptors expressed: hDP/Gqs5; hEP1; hEP2/Gqs5; hEP3A/Gqi5; hEP4/Gqs5; hFP; hIP; hTP), were cultured in 100 mm culture dishes in high-glucose DMEM medium containing 10% fetal bovine serum, 2 mM 1-glutamine, 250 μg/ml geneticin (G418) and 200 μg/ml hygromycin B as selection markers, and 100 units/ml penicillin G, 100 μg/ml streptomycin and 0.25 μg/ml amphotericin B.
(§2) Cells were seeded at a density of 5×10^4 cells per well in Biocoat® Poly-D-lysine-coated black-wall, clear-bottom 96-well plates (Becton-Dickinson) and allowed to attach overnight in an incubator at 37° C. Cells were then washed two times with HBSS-HEPES buffer (Hanks Balanced Salt Solution without bicarbonate and phenol red, 20 mM HEPES, pH 7.4) using a Denley Cellwash plate washer (Labsystems). After 45 minutes of dye-loading in the dark, using the calcium-sensitive dye Fluo-4 AM at a final concentration of 2 μM, plates were washed four times with HBSS-HEPES buffer to remove excess dye leaving 100 μl in each well. Plates were re-equilibrated to 37° C. for a few minutes.
(§3) Cells were excited with an Argon laser at 488 nm, and emission was measured through a 510-570 nm bandwidth emission filter (FLIPR™, Molecular Devices, Sunnyvale, Calif.). Drug solution was added in a 50 μl volume to each well to give the desired final concentration. The peak increase in fluorescence intensity was recorded for each well. On each plate, four wells each served as negative (HBSS-HEPES buffer) and positive controls (standard agonists: BW245C (hDP); PGE2 (HEP1; hEP2/Gqs5; hEP3A/Gqi5; hEP4/Gqs5); PGF2α (hFP); carbacyclin (hIP); U-46619 (hTP), depending on receptor). The peak fluorescence change in each drug-containing well was then expressed relative to the controls.
(§4) Compounds were tested in a high-throughput (HTS) or concentration-response (CoRe) format. In the HTS format, forty-four compounds per plate were examined in duplicates at a concentration of 10^−5 M. To generate concentration-response curves, four compounds per plate were tested in duplicates in a concentration range between 10^−5 and 10^−11 M. The duplicate values were averaged. In either, HTS or CoRe format each compound was tested on at least 3 separate plates using cells from different passages to give an n≧3.

The target of assay [2] is T2, hEP1 (Homo sapiens, UniProt P34995).
T2 construct: expressed in transfected cells
T2 sequence (P34995 1-402): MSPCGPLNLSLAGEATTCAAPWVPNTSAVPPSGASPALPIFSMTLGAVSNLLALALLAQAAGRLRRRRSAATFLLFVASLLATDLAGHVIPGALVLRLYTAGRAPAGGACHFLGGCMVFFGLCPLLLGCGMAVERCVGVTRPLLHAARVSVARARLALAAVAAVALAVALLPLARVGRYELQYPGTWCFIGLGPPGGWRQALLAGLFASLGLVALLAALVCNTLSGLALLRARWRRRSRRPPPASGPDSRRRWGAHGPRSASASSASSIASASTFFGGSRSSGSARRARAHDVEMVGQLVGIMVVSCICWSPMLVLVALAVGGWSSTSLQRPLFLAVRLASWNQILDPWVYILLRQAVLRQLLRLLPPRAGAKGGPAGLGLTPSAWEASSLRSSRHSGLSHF
Nature of the assay: FLIPR calcium signal, EP1. Type of assay: cell-based. The following applies: HEK-293(EBNA); for EC50: read-out: Ca2+ Signal-EC50 (nM) EP1. The protocol: as §1, §2, §3, §4

Assay [3] addresses EP2 (Homo sapiens, UniProt P43116). Nature of the assay: Competition binding, [3H]PGE2, EP2 (Ki). The arrangement: expressed in transfected cells; membranes or whole cells. The following applies: HEK 293 cells stably expressing human EP2, [3H]PGE2. The protocol: Competition binding experiments were performed in a medium containing Hank's balanced salt solution, Hepes 20 mM, pH 7.3, membranes (˜60 μg protein) or 2×10^5 cells from HEK 293 cells stably expressing human EP2 receptors, [^3H]PGE2 (10 nM) and various concentrations of test compounds in a total volume of 300 μl. Reaction mixtures were incubated at 23° C. for 60 min, and were filtered over Whatman GF/B filters under vacuum. Filters were washed three times with 5 ml ice-cold buffer containing 50 mM Tris/HCl (pH 7.3). Non-specific binding was estimated in the presence of excess unlabeled PGE2 (10 μM). Binding data fitted to the binding model for a single class of binding sites, using nonlinear regression analysis. IC50 values thus obtained were converted to Ki using the equation of Ki=(IC50/(1+[L]/KD) where [L] represents PGE2 concentration (10 nM) and KD the dissociation constant for [^3H]PGE2 at human EP2 receptors (40 nM).
HEK-293 cells stably expressing the human or feline FP receptor, or EP1, EP2, or EP4 receptors were washed with TME buffer, scraped from the bottom of the flasks, and homogenized for 30 sec using a Brinkman PT 10/35 polytron. TME buffer was added to achieve a final 40 ml volume in the centrifuge tubes (the composition of TME is 100 mM TRIS base, 20 mM MgCl2, […]; 10N HCl is added to achieve a pH of 7.4).
The cell homogenate was centrifuged at 19000 r.p.m. for 20 min at 4° C using a Beckman Ti-60 rotor. The resultant pellet was resuspended in TME buffer to give a final 1 mg/ml protein concentration, as determined by Biorad assay. Radioligand binding competition assays vs. [^3H-]17-phenyl PGF2α. (5 nM) were performed in a 100 μl volume for 60 min. Binding reactions were started by adding plasma membrane fraction. The reaction was terminated by the addition of 4 ml ice-cold TRIS-HCl buffer and rapid filtration through glass fiber GF/B filters using a Brandel cell harvester. The filters were washed 3 times with ice-cold buffer and oven dried for one hour.
[^3H-] PGE2 (specific activity 180 Ci mmol) was used as the radioligand for EP receptors. [^3H] 17-phenyl PGF2α, was employed for FP receptor binding studies. Binding studies employing EP1, EP2, EP4 and FP receptors were performed in duplicate in at least three separate experiments. A 200 μl assay volume was used. Incubations were for 60 min at 25° C. and were terminated by the addition of 4 ml of ice-cold 50 mM TRIS-HCl, followed by rapid filtration through Whatman GF/B filters and three additional 4 ml washes in a cell harvester (Brandel). Competition studies were performed using a final concentration of 5 nM [^3H]-PGE2, or 5 nM [^3H] 17-phenyl PGF2αand non-specific binding determined with 10^−5M of unlabeled PGE2, or 17-phenyl PGF2α, according to receptor subtype studied.

Assay [4] concerns the target T3, hEP2/Gqs5 (Homo sapiens, UniProt P43116).
T3 construct: expressed in transfected cells
Description: FLIPR calcium signal, EP2. Format: cell-based. As to conditions: HEK-293(EBNA), value outside parentheses, read-out: Ca2+ Signal-EC50 (nM) EP2. The method, then:
as §1, §2, §3, §4

For orientation: EC50 means the concentration giving half of the maximal effect. The Ki is a dissociation constant, usually derived from enzyme kinetics or from competition with a known ligand. A lower Ki goes with tighter binding.

T3 sequence (P43116 whole entry): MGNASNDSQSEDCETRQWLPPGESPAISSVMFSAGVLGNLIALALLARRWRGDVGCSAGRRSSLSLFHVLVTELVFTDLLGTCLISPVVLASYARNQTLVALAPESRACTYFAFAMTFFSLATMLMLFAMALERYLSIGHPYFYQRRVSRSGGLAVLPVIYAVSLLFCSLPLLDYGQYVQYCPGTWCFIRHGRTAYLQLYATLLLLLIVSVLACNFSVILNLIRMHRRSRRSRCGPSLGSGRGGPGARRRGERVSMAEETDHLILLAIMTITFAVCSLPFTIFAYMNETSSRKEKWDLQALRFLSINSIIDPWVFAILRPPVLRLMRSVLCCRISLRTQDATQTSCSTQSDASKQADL
Sequence of EP2 (P43116 whole entry): as above
T1 sequence (P35408 whole entry): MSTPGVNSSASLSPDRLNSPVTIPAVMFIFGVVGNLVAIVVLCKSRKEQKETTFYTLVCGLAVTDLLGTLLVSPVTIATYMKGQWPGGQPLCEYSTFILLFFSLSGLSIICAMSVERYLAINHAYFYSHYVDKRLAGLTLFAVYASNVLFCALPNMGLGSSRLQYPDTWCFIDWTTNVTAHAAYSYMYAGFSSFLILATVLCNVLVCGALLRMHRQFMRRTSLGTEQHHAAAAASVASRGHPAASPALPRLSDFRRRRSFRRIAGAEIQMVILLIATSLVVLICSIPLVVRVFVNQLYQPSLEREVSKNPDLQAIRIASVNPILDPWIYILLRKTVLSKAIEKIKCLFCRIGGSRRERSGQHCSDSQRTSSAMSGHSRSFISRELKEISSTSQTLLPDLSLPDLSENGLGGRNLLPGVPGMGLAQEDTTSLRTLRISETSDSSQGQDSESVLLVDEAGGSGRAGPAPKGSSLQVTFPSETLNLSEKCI

Consider `CCCCCC(O)c1ccc([C@@H]2[C@@H](C/C=C\CCCC(=O)O)[C@@H](Cl)C[C@H]2O)cc1` (stereo partly drawn) [Entry 9, (Z)-7-{(1R,2S,3R,5S)-5-Chloro-3-hydroxy-2-[4-(1-hydroxy-hexyl)-phenyl]-cyclopentyl}-hept-5-enoic acid], for which the EC50 in assay [1] worked out at 947 nM; in assay [4], 242 nM. In addition, in assay [2], the “Ca2+ Signal-EC50 (nM) EP1” value was “not active”. Moreover, the Ki in assay [3] turned out to be 3950 nM.
On the same counts, the results for `CC(C)(C)CCCC(O)c1ccc([C@@H]2[C@@H](CCCCCCC(=O)O)[C@H](Cl)C[C@H]2O)cc1` (mixture of isomers) [Entry 20, 7-{(1R,2S,3R,5R)-5-Chloro-3-hydroxy-2-[4-(1-hydroxy-5,5-dimethyl-hexyl)-phenyl]-cyclopentyl}-heptanoic acid] are 10700 nM, 5390 nM, “not active” and 3850 nM.
As for `O=C(O)CCCCCC[C@@H]1[C@@H](c2ccc(C(O)CCc3ccccc3)cc2)[C@H](O)C[C@H]1Cl` (stereo partly drawn) [Entry 24, 7-{(1R,2S,3R,5R)-5-Chloro-3-hydroxy-2-[4-(1-hydroxy-3-phenyl-propyl)-phenyl]-cyclopentyl}-heptanoic acid], the figures for the EC50 in assay [1], in assay [2] and in assay [4] were above 10000 nM, 4520 nM and 735 nM, respectively. This compound gave a Ki in assay [3] of 2160 nM.
On to `CCCCC(O)C(C)(C)c1ccc([C@@H]2[C@@H](C/C=C\CCCC(=O)O)[C@H](Cl)C[C@H]2O)cc1` (mixture of isomers) [Entry 32, (Z)-7-{(1R,2S,3R,5R)-5-Chloro-3-hydroxy-2-[4-(2-hydroxy-1,1-dimethyl-hexyl)-phenyl]-cyclopentyl}-hept-5-enoic acid], for which the “Ca2+ Signal-EC50 (nM) EP4” value in assay [1] is on record as “not active”. In assay [2], the “Ca2+ Signal-EC50 (nM) EP1” value was “not active”. Moreover, the affinity in assay [3], expressed as Ki, was 225 nM. Also, the EC50 in assay [4] is 164 nM.
As to `CCCCCC(O)c1ccc([C@@H]2[C@@H](C/C=C\CCCC(=O)O)[C@H](Cl)C[C@H]2O)cc1` (single isomer, unassigned) [Entry 13], the EC50 is above 10000 nM in assay [1] and 11 nM in assay [4]. Further, the “Ca2+ Signal-EC50 (nM) EP1” value in assay [2] was “not active”. The compound further showed an inhibition constant (Ki) in assay [3] of 73 nM.
As to `O=C(O)CCCCCC[C@@H]1[C@@H](c2ccc(C(O)CCC3CCCCC3)cc2)[C@H](O)C[C@H]1Cl` (stereo partly drawn) [Entry 16, 7-{(1R,2S,3R,5R)-5-Chloro-2-[4-(3-cyclohexyl-1-hydroxy-propyl)-phenyl]-3-hydroxy-cyclopentyl}-heptanoic acid], in assay [1], the “Ca2+ Signal-EC50 (nM) EP4” value is “not active”. The “Ca2+ Signal-EC50 (nM) EP1” value in assay [2] was “not active”. This compound registered a Ki in assay [3] of 1290 nM. Besides, the EC50 in assay [4] is 2330 nM.
Turning to `CCCCCC(O)c1ccc([C@@H]2[C@@H](CCCc3ccc(C(=O)O)s3)[C@H](Cl)C[C@H]2O)cc1` (stereo partly drawn) [Entry 2, 5-(3-{(1R,2S,3R,5R)-5-Chloro-3-hydroxy-2-[4-(1-hydroxy-hexyl)-phenyl]-cyclopentyl}-propyl)-thiophene-2-carboxylic acid], the “Ca2+ Signal-EC50 (nM) EP4” value in assay [1] is “not active”. Besides, the EC50 in assay [2] came out at 664 nM; in assay [4], 4 nM. In assay [3], this compound displayed a Ki of 24 nM.
As for `CCCCCC(O)c1ccc([C@@H]2[C@@H](Cc3cccc(CCC(=O)O)c3)[C@H](Cl)C[C@H]2O)cc1` (stereo partly drawn) [Entry 3, 3-(3-{(1R,2S,3R,5R)-5-Chloro-3-hydroxy-2-[4-(1-hydroxy-hexyl)-phenyl]-cyclopentylmethyl}-phenyl)-propionic acid], the “Ca2+ Signal-EC50 (nM) EP1” value in assay [2] is “not active”. In addition, in assay [3], affinity was put at a Ki of 2780 nM. Also, in assay [4], the EC50 was 158 nM.
For `CCCCC(O)c1ccc([C@@H]2[C@@H](C/C=C\CCCC(=O)O)[C@H](Cl)C[C@H]2O)cc1` (mixture of isomers) [Entry 27, (Z)-7-{(1R,2S,3R,5R)-5-Chloro-3-hydroxy-2-[4-(1-hydroxy-pentyl)-phenyl]-cyclopentyl}-hept-5-enoic acid], the “Ca2+ Signal-EC50 (nM) EP4” value in assay [1] was “not active”. Further, the “Ca2+ Signal-EC50 (nM) EP1” value in assay [2] was “not active”. This compound also registered an inhibitory constant (Ki) in assay [3] of 589 nM.

Values taken from patent US7585895B2, “Therapeutic substituted cyclopentanes” (Allergan, Inc., priority 2005, dated 2009).
